Test results taken from ChEMBL document CHEMBL1142022, “Synthesis and evaluation of diverse analogs of amygdalin as potential peptidomimetics of peptide T” (Bioorg Med Chem Lett, 2005).

Legend:
Type in all cases: functional
[1] = target: T-cell surface glycoprotein CD4 (Homo sapiens) (UniProt P01730); assay: Chemotactic activity of compound measured as function of concentration of 10 uM compared to peptide T,[DA1a]peptide T and amygdalin
[2] = target: T-cell surface glycoprotein CD4 (Homo sapiens) (UniProt P01730); assay: Chemotactic activity of compound measured as function of concentration of 9 uM compared to peptide T,[DA1a]peptide T and amygdalin
[3] = target: T-cell surface glycoprotein CD4 (Homo sapiens) (UniProt P01730); assay: Chemotactic activity of compound measured as function of concentration of 8 uM compared to peptide T,[DA1a]peptide T and amygdalin
[4] = target: T-cell surface glycoprotein CD4 (Homo sapiens) (UniProt P01730); assay: Chemotactic activity of compound measured as function of concentration of 11 uM compared to peptide T,[DA1a]peptide T and amygdalin
[5] = target: T-cell surface glycoprotein CD4 (Homo sapiens) (UniProt P01730); assay: Chemotactic activity of compound measured as function of concentration of 6 uM compared to peptide T,[DA1a]peptide T and amygdalin
[6] = target: T-cell surface glycoprotein CD4 (Homo sapiens) (UniProt P01730); assay: Chemotactic activity of compound measured as function of concentration of 7 uM compared to peptide T,[DA1a]peptide T and amygdalin

Compound: OC[C@@H]1O[C@@H](OC[C@@H]2O[C@@H](OCc3ccccc3Br)[C@@H](O)[C@@H](O)[C@@H]2O)[C@@H](O)[C@@H](O)[C@@H]1O
- Chemotactic index [1]: 0.94

Compound: OC[C@@H]1O[C@@H](OC[C@@H]2O[C@@H](OCCc3ccccc3)[C@@H](O)[C@@H](O)[C@@H]2O)[C@@H](O)[C@@H](O)[C@@H]1O
- Chemotactic index [2]: 0.7

Compound: COc1ccc(CO[C@@H]2O[C@@H](CO[C@@H]3O[C@@H](CO)[C@@H](O)[C@H](O)[C@@H]3O)[C@@H](O)[C@H](O)[C@@H]2O)cc1
- Chemotactic index [1]: 0.87

Compound: OC[C@@H]1O[C@@H](OC[C@@H]2O[C@@H](OCc3c4ccccc4cc4ccccc34)[C@@H](O)[C@@H](O)[C@@H]2O)[C@@H](O)[C@@H](O)[C@@H]1O
- Chemotactic index [3]: 0.94

Compound: C[C@H](N)C(=O)N[C@@H](CO)C(=O)N[C@H](C(=O)N[C@H](C(=O)N[C@H](C(=O)N[C@@H](CC(N)=O)C(=O)N[C@@H](Cc1ccc(O)cc1)C(=O)N[C@H](C(=O)O)[C@@H](C)O)[C@@H](C)O)[C@@H](C)O)[C@@H](C)O
- Chemotactic index [4]: 1.09

Compound: OC[C@@H]1O[C@@H](OC[C@@H]2O[C@@H](OCc3ccccc3)[C@@H](O)[C@@H](O)[C@@H]2O)[C@@H](O)[C@@H](O)[C@@H]1O
- Chemotactic index [3]: 0.76

Compound: CCC(O[C@@H]1O[C@@H](CO[C@@H]2O[C@@H](CO)[C@@H](O)[C@H](O)[C@@H]2O)[C@@H](O)[C@H](O)[C@@H]1O)c1ccccc1 (stereo not given in full)
- Chemotactic index [5]: 0.75

Compound: O=C(O)[C@H](O[C@@H]1O[C@@H](CO[C@@H]2O[C@@H](CO)[C@@H](O)[C@H](O)[C@@H]2O)[C@@H](O)[C@H](O)[C@@H]1O)c1ccccc1
- Chemotactic index [2]: 0.71

Compound: CC(O[C@@H]1O[C@@H](CO[C@@H]2O[C@@H](CO)[C@@H](O)[C@H](O)[C@@H]2O)[C@@H](O)[C@H](O)[C@@H]1O)c1ccccc1 (stereo not given in full)
- Chemotactic index [3]: 0.77

Compound: CC(C)(C)C(O[C@@H]1O[C@@H](CO[C@@H]2O[C@@H](CO)[C@@H](O)[C@H](O)[C@@H]2O)[C@@H](O)[C@H](O)[C@@H]1O)c1ccccc1 (stereo not given in full)
- Chemotactic index [2]: 0.84

Compound: COc1ccc(CO[C@@H]2O[C@@H](CO[C@@H]3O[C@@H](CO)[C@@H](O)[C@H](O)[C@@H]3O)[C@@H](O)[C@H](O)[C@@H]2O)c(OC)c1
- Chemotactic index [1]: 0.84

Compound: C[C@@H](N)C(=O)N[C@@H](CO)C(=O)N[C@H](C(=O)N[C@H](C(=O)N[C@H](C(=O)N[C@@H](CC(N)=O)C(=O)N[C@@H](Cc1ccc(O)cc1)C(=O)N[C@H](C(N)=O)[C@@H](C)O)[C@@H](C)O)[C@@H](C)O)[C@@H](C)O
- Chemotactic index [4]: 0.89

Compound: NC(=O)[C@H](O[C@@H]1O[C@@H](CO[C@@H]2O[C@@H](CO)[C@@H](O)[C@H](O)[C@@H]2O)[C@@H](O)[C@H](O)[C@@H]1O)c1ccccc1
- Chemotactic index [6]: 0.84

Compound: N#CC(O[C@@H]1O[C@H](CO[C@@H]2O[C@H](CO)[C@@H](O)[C@H](O)[C@H]2O)[C@@H](O)[C@H](O)[C@H]1O)c1ccccc1 (single isomer, unassigned)
- Chemotactic index [1]: 0.63

Compound: C#CC(O[C@@H]1O[C@@H](CO[C@@H]2O[C@@H](CO)[C@@H](O)[C@H](O)[C@@H]2O)[C@@H](O)[C@H](O)[C@@H]1O)c1ccccc1 (stereo not given in full)
- Chemotactic index [5]: 0.79
